Columns and labels:
[1] = target: MAP kinase-activated protein kinase 2 (Homo sapiens) (UniProt P49137); assay: Inhibition of human MAPKAPK2 assessed as residual activity at 10 uM relative to control
[2] = species on record: Homo sapiens; assay: Inhibition of human VEGFR assessed as residual activity at 1 uM relative to control
[3] = target: T1, Mitogen-activated protein kinase 15 (Homo sapiens) (UniProt Q8TD08); assay: Inhibition of human ERK8 assessed as residual activity at 1 uM relative to control
T1 sequence (whole entry): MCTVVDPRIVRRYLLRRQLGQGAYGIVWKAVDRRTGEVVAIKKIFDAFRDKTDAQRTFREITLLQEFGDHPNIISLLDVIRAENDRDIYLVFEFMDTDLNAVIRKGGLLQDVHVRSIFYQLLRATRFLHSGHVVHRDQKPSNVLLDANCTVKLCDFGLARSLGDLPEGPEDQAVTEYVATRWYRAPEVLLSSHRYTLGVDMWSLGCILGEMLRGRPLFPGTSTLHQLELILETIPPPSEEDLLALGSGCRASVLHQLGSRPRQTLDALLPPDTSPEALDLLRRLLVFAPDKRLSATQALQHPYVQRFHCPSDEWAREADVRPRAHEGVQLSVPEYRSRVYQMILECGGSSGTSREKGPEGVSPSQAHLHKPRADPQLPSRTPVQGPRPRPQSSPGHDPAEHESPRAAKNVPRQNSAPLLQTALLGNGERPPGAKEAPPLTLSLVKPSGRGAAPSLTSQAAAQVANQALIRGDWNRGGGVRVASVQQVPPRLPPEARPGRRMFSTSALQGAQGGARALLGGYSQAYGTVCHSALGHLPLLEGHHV

[4] = target: MAP kinase-activated protein kinase 2 (Homo sapiens) (UniProt P49137); assay: Inhibition of human MAPKAPK2 assessed as residual activity at 1 uM relative to control
[5] = test system: A-375; assay: Cell cycle arrest in human A375 cells assessed as accumulation at G0-G1 phase at 80 uM after 48 hrs by FACS flow cytometric analysis (reference value: 55.4%); format: functional
[6] = target: T2, Mitogen-activated protein kinase 12 (Homo sapiens) (UniProt P53778); assay: Inhibition of human p38gamma MAPK assessed as residual activity at 10 uM relative to control
T2 sequence (whole entry): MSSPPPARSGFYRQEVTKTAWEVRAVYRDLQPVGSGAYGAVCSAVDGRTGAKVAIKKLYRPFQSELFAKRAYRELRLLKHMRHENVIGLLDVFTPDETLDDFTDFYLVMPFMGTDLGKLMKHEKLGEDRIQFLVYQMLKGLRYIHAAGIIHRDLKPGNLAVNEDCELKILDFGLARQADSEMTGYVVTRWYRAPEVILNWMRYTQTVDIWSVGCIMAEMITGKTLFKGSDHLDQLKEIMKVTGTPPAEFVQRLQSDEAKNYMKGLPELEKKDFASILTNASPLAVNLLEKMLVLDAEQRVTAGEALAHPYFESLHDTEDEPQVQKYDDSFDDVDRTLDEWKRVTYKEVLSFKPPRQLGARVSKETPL

[7] = target: Serine/threonine-protein kinase Nek2 (Homo sapiens, UniProt P51955); assay: Inhibition of human NEK2alpha in presence of 50 uM ATP
Chain of Serine/threonine-protein kinase Nek2 (P51955 whole entry): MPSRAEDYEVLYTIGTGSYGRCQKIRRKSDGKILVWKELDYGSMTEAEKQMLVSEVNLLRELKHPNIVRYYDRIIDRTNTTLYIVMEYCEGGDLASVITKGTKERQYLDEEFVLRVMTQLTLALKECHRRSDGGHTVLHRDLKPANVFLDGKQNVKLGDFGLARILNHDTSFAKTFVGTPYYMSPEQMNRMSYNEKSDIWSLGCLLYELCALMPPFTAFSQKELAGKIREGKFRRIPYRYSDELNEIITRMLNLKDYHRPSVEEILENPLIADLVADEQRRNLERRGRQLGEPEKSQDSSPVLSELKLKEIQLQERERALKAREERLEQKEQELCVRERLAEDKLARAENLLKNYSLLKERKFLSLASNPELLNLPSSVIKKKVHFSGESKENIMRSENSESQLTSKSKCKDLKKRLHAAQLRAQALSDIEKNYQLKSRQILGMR

[8] = species on record: Homo sapiens; assay: Inhibition of human VEGFR assessed as residual activity at 10 uM relative to control
[9] = test system: A-375; assay: Cell cycle arrest in human A375 cells assessed as accumulation at sub-G1 phase at 80 uM after 48 hrs by FACS flow cytometric analysis (reference value: 2.17%); format: functional
[10] = target: T1, Mitogen-activated protein kinase 15 (Homo sapiens); assay: Inhibition of human ERK8 assessed as residual activity at 10 uM relative to control
[11] = target: T3, Serine/threonine-protein kinase Chk1 (Homo sapiens, UniProt O14757); assay: Inhibition of human CHK1 in presence of 20 uM ATP
T3 sequence (O14757 whole entry): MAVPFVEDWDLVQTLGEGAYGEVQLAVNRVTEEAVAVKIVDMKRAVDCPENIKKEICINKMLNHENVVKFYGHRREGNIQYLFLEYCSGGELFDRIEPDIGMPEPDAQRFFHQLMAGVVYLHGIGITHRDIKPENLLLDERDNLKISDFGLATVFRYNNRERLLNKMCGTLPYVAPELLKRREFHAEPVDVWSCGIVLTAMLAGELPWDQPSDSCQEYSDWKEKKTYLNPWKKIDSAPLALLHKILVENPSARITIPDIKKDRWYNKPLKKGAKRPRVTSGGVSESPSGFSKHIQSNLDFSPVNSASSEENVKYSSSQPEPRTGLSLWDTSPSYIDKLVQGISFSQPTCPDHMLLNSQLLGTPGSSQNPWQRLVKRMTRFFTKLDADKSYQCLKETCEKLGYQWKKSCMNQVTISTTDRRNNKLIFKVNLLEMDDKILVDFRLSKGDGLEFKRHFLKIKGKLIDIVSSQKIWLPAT

[12] = test system: A-375; assay: Cell cycle arrest in human A375 cells assessed as accumulation at S phase at 80 uM after 48 hrs by FACS flow cytometric analysis (reference value: 25.1%); format: functional
[13] = target: Serine/threonine-protein kinase pim-2 (Homo sapiens) (UniProt Q9P1W9); assay: Inhibition of human PIM2 assessed as residual activity at 1 uM relative to control
Chain of Serine/threonine-protein kinase pim-2 (Homo sapiens) (Q9P1W9 whole entry, looked up): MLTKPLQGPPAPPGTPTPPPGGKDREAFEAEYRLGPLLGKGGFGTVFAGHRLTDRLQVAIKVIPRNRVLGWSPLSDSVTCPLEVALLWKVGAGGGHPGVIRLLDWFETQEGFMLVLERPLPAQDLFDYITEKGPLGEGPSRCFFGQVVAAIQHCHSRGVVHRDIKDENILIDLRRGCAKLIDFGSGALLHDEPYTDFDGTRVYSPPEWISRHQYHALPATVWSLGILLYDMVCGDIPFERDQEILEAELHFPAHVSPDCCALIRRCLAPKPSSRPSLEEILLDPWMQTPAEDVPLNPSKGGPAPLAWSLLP

[14] = target: Mitogen-activated protein kinase 1 (Homo sapiens) (UniProt P28482); assay: Inhibition of human MAPK2 assessed as residual activity at 10 uM relative to control
Chain of Mitogen-activated protein kinase 1 (Homo sapiens) (P28482 whole entry): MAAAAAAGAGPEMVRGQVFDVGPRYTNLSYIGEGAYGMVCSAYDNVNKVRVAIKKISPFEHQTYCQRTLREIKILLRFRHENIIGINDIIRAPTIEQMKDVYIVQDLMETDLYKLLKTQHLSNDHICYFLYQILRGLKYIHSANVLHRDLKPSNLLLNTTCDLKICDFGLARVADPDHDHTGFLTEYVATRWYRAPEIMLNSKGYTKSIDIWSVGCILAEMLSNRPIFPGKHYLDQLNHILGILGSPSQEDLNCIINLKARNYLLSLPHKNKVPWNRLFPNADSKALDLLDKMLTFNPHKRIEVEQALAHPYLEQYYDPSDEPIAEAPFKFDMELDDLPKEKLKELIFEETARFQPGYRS

[15] = target: Serine/threonine-protein kinase pim-2 (Homo sapiens) (UniProt Q9P1W9); assay: Inhibition of human PIM2 assessed as residual activity at 10 uM relative to control
[16] = target: Serine/threonine-protein kinase Chk2 (Homo sapiens) (UniProt O96017); assay: Inhibition of human CHK2 assessed as residual activity at 1 uM relative to control
Chain of Serine/threonine-protein kinase Chk2 (Homo sapiens) (O96017 whole entry): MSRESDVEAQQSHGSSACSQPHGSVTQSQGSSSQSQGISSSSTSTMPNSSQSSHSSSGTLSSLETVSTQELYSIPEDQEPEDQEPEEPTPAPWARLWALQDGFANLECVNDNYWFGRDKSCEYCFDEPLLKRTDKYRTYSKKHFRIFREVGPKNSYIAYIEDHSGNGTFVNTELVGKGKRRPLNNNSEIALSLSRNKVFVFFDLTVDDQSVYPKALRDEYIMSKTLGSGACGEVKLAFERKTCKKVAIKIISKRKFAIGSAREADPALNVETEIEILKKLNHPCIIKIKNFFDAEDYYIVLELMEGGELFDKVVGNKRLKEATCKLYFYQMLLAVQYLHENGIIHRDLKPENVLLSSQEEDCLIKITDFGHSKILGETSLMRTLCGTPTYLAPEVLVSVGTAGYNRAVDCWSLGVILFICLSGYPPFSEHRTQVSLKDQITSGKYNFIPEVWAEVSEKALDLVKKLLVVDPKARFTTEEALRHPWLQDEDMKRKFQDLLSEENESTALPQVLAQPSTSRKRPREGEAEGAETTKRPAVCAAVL

[17] = target: Mitogen-activated protein kinase 1 (Homo sapiens) (UniProt P28482); assay: Inhibition of human MAPK2 assessed as residual activity at 1 uM relative to control
[18] = test system: A-375; assay: Cell cycle arrest in human A375 cells assessed as accumulation at G0-G1 phase at 40 uM after 48 hrs by FACS flow cytometric analysis (reference value: 55.4%); format: functional
[19] = test system: A-375; assay: Cell cycle arrest in human A375 cells assessed as accumulation at G2-M phase at 80 uM after 48 hrs by FACS flow cytometric analysis (reference value: 17.3%); format: functional
[20] = target: T2, Mitogen-activated protein kinase 12 (Homo sapiens); assay: Inhibition of human p38gamma MAPK assessed as residual activity at 1 uM relative to control
[21] = test system: A-375; assay: Cell cycle arrest in human A375 cells assessed as accumulation at G2-M phase at 10 uM after 48 hrs by FACS flow cytometric analysis (reference value: 17.3%); format: functional
[22] = target: Fibroblast growth factor receptor 1 (Homo sapiens, UniProt P11362); assay: Inhibition of human FGFR1 in presence of 20 uM ATP
Chain of Fibroblast growth factor receptor 1 (P11362 whole entry, canonical isoform): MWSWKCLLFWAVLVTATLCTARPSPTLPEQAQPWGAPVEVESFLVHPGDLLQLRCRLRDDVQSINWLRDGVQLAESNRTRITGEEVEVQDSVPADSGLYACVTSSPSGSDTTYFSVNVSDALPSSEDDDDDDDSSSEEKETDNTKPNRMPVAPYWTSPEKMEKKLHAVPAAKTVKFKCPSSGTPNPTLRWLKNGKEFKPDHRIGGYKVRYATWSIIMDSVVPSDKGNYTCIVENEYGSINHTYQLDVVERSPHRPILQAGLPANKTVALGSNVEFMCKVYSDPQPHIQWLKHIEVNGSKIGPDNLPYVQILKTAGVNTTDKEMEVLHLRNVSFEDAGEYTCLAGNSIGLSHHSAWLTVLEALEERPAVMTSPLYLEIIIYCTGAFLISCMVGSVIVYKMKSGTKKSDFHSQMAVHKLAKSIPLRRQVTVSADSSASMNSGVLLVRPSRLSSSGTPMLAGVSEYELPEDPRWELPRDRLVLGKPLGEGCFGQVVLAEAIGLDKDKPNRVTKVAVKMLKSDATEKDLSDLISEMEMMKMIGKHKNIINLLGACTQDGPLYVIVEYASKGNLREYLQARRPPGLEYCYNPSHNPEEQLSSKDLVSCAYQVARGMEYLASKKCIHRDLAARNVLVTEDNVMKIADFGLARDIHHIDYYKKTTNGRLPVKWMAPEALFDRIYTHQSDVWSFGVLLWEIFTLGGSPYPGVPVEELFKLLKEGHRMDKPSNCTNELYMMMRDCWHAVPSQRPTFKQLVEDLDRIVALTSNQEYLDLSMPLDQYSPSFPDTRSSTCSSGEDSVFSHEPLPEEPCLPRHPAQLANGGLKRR

[23] = target: Casein kinase I isoform delta (Rattus norvegicus, UniProt Q06486); assay: Inhibition of rat CK1delta in presence of 20 uM ATP
Chain of Casein kinase I isoform delta (Q06486 whole entry, canonical isoform): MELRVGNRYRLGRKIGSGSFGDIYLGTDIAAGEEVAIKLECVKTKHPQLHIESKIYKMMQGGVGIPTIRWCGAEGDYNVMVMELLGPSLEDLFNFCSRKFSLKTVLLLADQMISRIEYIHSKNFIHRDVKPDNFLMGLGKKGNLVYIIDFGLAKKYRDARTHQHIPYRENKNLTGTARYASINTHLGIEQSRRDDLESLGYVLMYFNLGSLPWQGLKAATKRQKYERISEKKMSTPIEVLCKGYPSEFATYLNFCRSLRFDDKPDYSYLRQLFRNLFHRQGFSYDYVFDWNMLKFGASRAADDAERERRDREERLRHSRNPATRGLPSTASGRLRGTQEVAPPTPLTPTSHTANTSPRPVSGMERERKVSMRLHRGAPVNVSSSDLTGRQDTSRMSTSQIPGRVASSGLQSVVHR

[24] = target: Mitogen-activated protein kinase 14 (Homo sapiens, UniProt Q16539); assay: Inhibition of human p38alpha MAPK in presence of 50 uM ATP
Chain of Mitogen-activated protein kinase 14 (Q16539 whole entry): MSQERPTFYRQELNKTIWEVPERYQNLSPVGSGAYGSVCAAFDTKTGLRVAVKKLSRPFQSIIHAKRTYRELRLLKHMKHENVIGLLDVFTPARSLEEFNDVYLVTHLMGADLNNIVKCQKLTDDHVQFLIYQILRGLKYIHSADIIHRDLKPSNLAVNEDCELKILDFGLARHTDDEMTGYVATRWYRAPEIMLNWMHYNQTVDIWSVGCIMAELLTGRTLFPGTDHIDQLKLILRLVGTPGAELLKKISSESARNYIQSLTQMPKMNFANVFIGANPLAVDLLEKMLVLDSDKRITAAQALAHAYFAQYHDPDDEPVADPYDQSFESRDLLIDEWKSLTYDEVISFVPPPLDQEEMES

Chain of MAP kinase-activated protein kinase 2 (Homo sapiens) (P49137 whole entry, looked up): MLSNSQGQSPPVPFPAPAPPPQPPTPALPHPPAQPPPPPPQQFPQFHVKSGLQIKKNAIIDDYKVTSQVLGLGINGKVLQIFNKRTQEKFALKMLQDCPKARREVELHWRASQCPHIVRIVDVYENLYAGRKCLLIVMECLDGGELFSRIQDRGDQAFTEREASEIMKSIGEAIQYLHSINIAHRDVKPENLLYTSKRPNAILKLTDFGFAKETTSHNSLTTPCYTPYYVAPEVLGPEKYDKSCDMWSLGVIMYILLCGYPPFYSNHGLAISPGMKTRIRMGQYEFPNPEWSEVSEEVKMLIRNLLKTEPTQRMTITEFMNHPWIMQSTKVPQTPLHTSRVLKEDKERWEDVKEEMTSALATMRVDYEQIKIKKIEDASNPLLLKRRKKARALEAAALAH

Activity [1] | Activity [2] | Activity [4] | Activity [6] | Activity [8] | Activity [13] | Activity [14] | Activity [15] | Activity [16] | Activity [17] | Activity [20] | IC50 [23] | Compound | Activity [3] | Activity [5] | Activity [9] | Activity [10] | Activity [12] | Activity [19] | further results
96.4% | 54.5% | 63.8% | 95.6% | 20.3% | 79% | 82.7% | 58.7% | 68.5% | 91.7% | 117% | 893 nM | CC(=O)Nc1cccc(-c2cnc3[nH]nc(C)c3c2)c1 | 45.3% | 5.36% | 45.7% | 15.8% | 11.6% | 37.3% | IC50 [7]: 2000 nM; IC50 ([11]; read-out: IC50): 232 nM; Activity [18]: 16.9%; Activity [21]: 12.8%; IC50 [22]: 6000 nM; IC50 [24]: Not Active
124% | 79.5% | 94.7% | 93% | 50.8% | 119% | 93% | 103% | 89.5% | 106% | 97.1% | 838 nM | CC(=O)Nc1nccc(-c2c(-c3ccccc3)noc2C)n1 | 91.1% | 58.5% | 3.32% | 89.5% | 21.9% | 16.2% | IC50 [11]: Not Active; IC50 ([24]; read-out: IC50): 2040 nM
– | – | – | – | – | – | – | – | 96% | – | – | – | CCCC(=O)Nc1n[nH]c2ncc(-c3cccnc3)cc12 | – | – | – | – | – | – | –

— ChEMBL document CHEMBL2429821, “A Casein kinase 1/Checkpoint kinase 1 pyrazolo-pyridine protein kinase inhibitor as novel activator of the p53 pathway” (Bioorg Med Chem Lett, 2013)
